According to ChEMBL document CHEMBL3817755, “Design, synthesis and biological evaluation of indazolepyrimidine based derivatives as anticancer agents with anti-angiogenic and antiproliferative activities” (Medchemcomm, 2016):

Experiments:
Format in all cases: functional
[1] = Growth inhibition of human HCT116 cells at 10 uM after 48 hrs by SRB assay; details: HCT-116, 48 h, read-out: GI
NCI-H522 = assay: Growth inhibition of human NCI-H522 cells at 10 uM after 48 hrs by SRB assay; details: NCI-H522, 48 h, read-out: GI
[2] = Growth inhibition of human SF295 cells at 10 uM after 48 hrs by SRB assay; details: SF-295, 48 h, read-out: GI
ACHN = assay: Growth inhibition of human ACHN cells at 10 uM after 48 hrs by SRB assay; details: read-out: GI
T47D = assay: Growth inhibition of human T47D cells at 10 uM after 48 hrs by SRB assay; details: read-out: GI
[3] = Growth inhibition of human PC3 cells at 10 uM after 48 hrs by SRB assay; details: PC-3, 48 h, read-out: GI
[4] = Growth inhibition of human OVCAR4 cells at 10 uM after 48 hrs by SRB assay; details: OVCAR-4, 48 h, read-out: GI
[5] = Growth inhibition of human RXF393 cells at 10 uM after 48 hrs by SRB assay; details: RXF 393, 48 h, read-out: GI
[6] = Growth inhibition of human SNB75 cells at 10 uM after 48 hrs by SRB assay; details: SNB-75, 48 h, read-out: GI
SR = assay: Growth inhibition of human SR cells at 10 uM after 48 hrs by SRB assay; details: read-out: GI
[7] = Growth inhibition of human OVCAR8 cells at 10 uM after 48 hrs by SRB assay; details: OVCAR-8, 48 h, read-out: GI
[8] = Growth inhibition of human Hs 578T cells at 10 uM after 48 hrs by SRB assay; details: read-out: GI
[9] = Growth inhibition of human BT549 cells at 10 uM after 48 hrs by SRB assay; details: BT-549, 48 h, read-out: GI
NCI-H460 = assay: Growth inhibition of human NCI-H460 cells at 10 uM after 48 hrs by SRB assay; details: NCI-H460, 48 h, read-out: GI
U-251 = assay: Growth inhibition of human U251 cells at 10 uM after 48 hrs by SRB assay; details: U-251, 48 h, read-out: GI
[10] = Growth inhibition of human OVCAR5 cells at 10 uM after 48 hrs by SRB assay; details: OVCAR-5, 48 h, read-out: GI
Malme-3M = assay: Growth inhibition of human MALME-3M cells at 10 uM after 48 hrs by SRB assay; details: read-out: GI
A498 = assay: Growth inhibition of human A498 cells at 10 uM after 48 hrs by SRB assay; details: A498, 48 h, read-out: GI
NCI-H226 = assay: Growth inhibition of human NCI-H226 cells at 10 uM after 48 hrs by SRB assay; details: NCI-H226, 48 h, read-out: GI
[11] = Growth inhibition of human OVCAR3 cells at 10 uM after 48 hrs by SRB assay; details: OVCAR-3, 48 h, read-out: GI
K562 = assay: Growth inhibition of human K562 cells at 10 uM after 48 hrs by SRB assay; details: K562, 48 h, read-out: GI
SN12C = assay: Growth inhibition of human SN12C cells at 10 uM after 48 hrs by SRB assay; details: read-out: GI
[12] = Growth inhibition of human COLO205 cells at 10 uM after 48 hrs by SRB assay; details: COLO 205, 48 h, read-out: GI
MCF7 = assay: Growth inhibition of human MCF7 cells at 10 uM after 48 hrs by SRB assay; details: MCF7, 48 h, read-out: GI
786-0 = assay: Growth inhibition of human 786-0 cells at 10 uM after 48 hrs by SRB assay; details: 786-0, 48 h, read-out: GI
HT-29 = assay: Growth inhibition of human HT-29 cells at 10 uM after 48 hrs by SRB assay; details: HT-29, 48 h, read-out: GI
[13] = Growth inhibition of human HL-60(TB) cells at 10 uM after 48 hrs by SRB assay; details: HL-60, 48 h, read-out: GI
A549 = assay: Growth inhibition of human A549/ATCC cells at 10 uM after 48 hrs by SRB assay; details: A549, 48 h, read-out: GI
[14] = Growth inhibition of human Caki1 cells at 10 uM after 48 hrs by SRB assay; details: CAKI-1, 48 h, read-out: GI
MDA-MB-231 = assay: Growth inhibition of human MDA-MB-231 cells at 10 uM after 48 hrs by SRB assay; details: MDA-MB-231, 48 h, read-out: GI
[15] = Growth inhibition of human HCC2998 cells at 10 uM after 48 hrs by SRB assay; details: HCC 2998, 48 h, read-out: GI
[16] = Growth inhibition of human LOXIMVI cells at 10 uM after 48 hrs by SRB assay; details: LOX IMVI, read-out: GI
[17] = Growth inhibition of human SF268 cells at 10 uM after 48 hrs by SRB assay; details: SF-268, 48 h, read-out: GI
[18] = Growth inhibition of human DU145 cells at 10 uM after 48 hrs by SRB assay; details: DU-145, 48 h, read-out: GI
KM12 = assay: Growth inhibition of human KM12 cells at 10 uM after 48 hrs by SRB assay; details: KM12, 48 h, read-out: GI
MDA-MB-435 = assay: Growth inhibition of human MDA-MB-435 cells at 10 uM after 48 hrs by SRB assay; details: MDA-MB-435, 48 h, read-out: GI
[19] = Growth inhibition of human SKOV3 cells at 10 uM after 48 hrs by SRB assay; details: SK-OV-3, 48 h, read-out: GI
SK-MEL-5 = assay: Growth inhibition of human SK-MEL-5 cells at 10 uM after 48 hrs by SRB assay; details: SK-MEL-5, 48 h, read-out: GI
[20] = Growth inhibition of human MOLT4 cells at 10 uM after 48 hrs by SRB assay; details: MOLT-4, 48 h, read-out: GI
M14 = assay: Growth inhibition of human M14 cells at 10 uM after 48 hrs by SRB assay; details: M14, 48 h, read-out: GI
[21] = Growth inhibition of human IGROV1 cells at 10 uM after 48 hrs by SRB assay; details: IGROV-1, 48 h, read-out: GI
NCI-H23 = assay: Growth inhibition of human NCI-H23 cells at 10 uM after 48 hrs by SRB assay; details: NCI-H23, 48 h, read-out: GI

Fc1ccc(Nc2nccc(Nc3ccc4[nH]ncc4c3)n2)cc1
inhibition of growth at 10 µM [1]: 45% | inhibition of growth at 10 µM (NCI-H522): 57% | inhibition of growth at 10 µM [2]: 11% | inhibition of growth at 10 µM (ACHN): 47% | inhibition of growth at 10 µM (T47D): 71% | inhibition of growth at 10 µM [3]: 54% | inhibition of growth at 10 µM [4]: 27% | inhibition of growth at 10 µM [5]: 67% | inhibition of growth at 10 µM [6]: 15% | inhibition of growth at 10 µM (SR): 62% | inhibition of growth at 10 µM [7]: 59% | inhibition of growth at 10 µM [8]: 35% | inhibition of growth at 10 µM [9]: 33% | inhibition of growth at 10 µM (NCI-H460): 40% | inhibition of growth at 10 µM (U-251): 35% | inhibition of growth at 10 µM [10]: 32% | inhibition of growth at 10 µM (Malme-3M): 3% | inhibition of growth at 10 µM (A498): 51% | inhibition of growth at 10 µM (NCI-H226): 53% | inhibition of growth at 10 µM [11]: 14% | inhibition of growth at 10 µM (K562): 61% | inhibition of growth at 10 µM (SN12C): 40% | inhibition of growth at 10 µM [12]: 39% | inhibition of growth at 10 µM (MCF7): 37% | inhibition of growth at 10 µM (786-0): 32% | inhibition of growth at 10 µM (HT-29): 47% | inhibition of growth at 10 µM [13]: 31% | inhibition of growth at 10 µM (A549): 43% | inhibition of growth at 10 µM [14]: 51% | inhibition of growth at 10 µM (MDA-MB-231): 21% | inhibition of growth at 10 µM [15]: 1% | inhibition of growth at 10 µM [16]: 32% | inhibition of growth at 10 µM [17]: 29% | inhibition of growth at 10 µM [18]: 34% | inhibition of growth at 10 µM (KM12): 76% | inhibition of growth at 10 µM (MDA-MB-435): 25% | inhibition of growth at 10 µM [19]: 24% | inhibition of growth at 10 µM (SK-MEL-5): 66% | inhibition of growth at 10 µM [20]: 74% | inhibition of growth at 10 µM (M14): 38% | inhibition of growth at 10 µM [21]: 44% | inhibition of growth at 10 µM (NCI-H23): 27%

COc1cccc(Nc2nccc(Nc3ccc4[nH]ncc4c3)n2)c1
inhibition of growth at 10 µM [1]: 187% | inhibition of growth at 10 µM (NCI-H522): 168% | inhibition of growth at 10 µM [2]: 84% | inhibition of growth at 10 µM (ACHN): 103% | inhibition of growth at 10 µM (T47D): 152% | inhibition of growth at 10 µM [3]: 181% | inhibition of growth at 10 µM [4]: 160% | inhibition of growth at 10 µM [5]: 82% | inhibition of growth at 10 µM [6]: 70% | inhibition of growth at 10 µM (SR): 111% | inhibition of growth at 10 µM [7]: 181% | inhibition of growth at 10 µM [8]: 76% | inhibition of growth at 10 µM [9]: 116% | inhibition of growth at 10 µM (NCI-H460): 168% | inhibition of growth at 10 µM (U-251): 194% | inhibition of growth at 10 µM [10]: 67% | inhibition of growth at 10 µM (Malme-3M): 149% | inhibition of growth at 10 µM (A498): 87% | inhibition of growth at 10 µM (NCI-H226): 117% | inhibition of growth at 10 µM [11]: 161% | inhibition of growth at 10 µM (K562): 110% | inhibition of growth at 10 µM (SN12C): 80% | inhibition of growth at 10 µM [12]: 188% | inhibition of growth at 10 µM (MCF7): 151% | inhibition of growth at 10 µM (786-0): 112% | inhibition of growth at 10 µM (HT-29): 158% | inhibition of growth at 10 µM [13]: 162% | inhibition of growth at 10 µM (A549): 168% | inhibition of growth at 10 µM [14]: 131% | inhibition of growth at 10 µM (MDA-MB-231): 85% | inhibition of growth at 10 µM [15]: 107% | inhibition of growth at 10 µM [16]: 167% | inhibition of growth at 10 µM [17]: 74% | inhibition of growth at 10 µM [18]: 159% | inhibition of growth at 10 µM (KM12): 144% | inhibition of growth at 10 µM (MDA-MB-435): 178% | inhibition of growth at 10 µM [19]: 85% | inhibition of growth at 10 µM (SK-MEL-5): 184% | inhibition of growth at 10 µM [20]: 132% | inhibition of growth at 10 µM (M14): 174% | inhibition of growth at 10 µM [21]: 124% | inhibition of growth at 10 µM (NCI-H23): 129%
